Source: patent publication US6737383B1, “Herbicidal oxadiazolidines” (priority 1999, dated 2004)

Tests used:
bedstraw = experiment: Test B pre/postemergence bedstraw; type: in vivo, Galium aparine
How it was run: (§1)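 Response is a visual 0-to-10 score relative to untreated plants, where 0 means no effect and 10 means complete control, taken twelve to sixteen days after application. Treatments went onto soil at planting and onto foliage of 1- to 4-leaf plants, using a surfactant-containing non-phytotoxic solvent.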

blackgrass = experiment: Test B pre/postemergence blackgrass; type: in vivo, Alopecurus myosuroides
How it was run: as §1

surinam grass = experiment: Test B pre/postemergence surinam grass; type: in vivo, Brachiaria decumbens
How it was run: as §1

cocklebur = experiment: Test B pre/postemergence cocklebur; type: in vivo, Xanthium strumarium
How it was run: as §1

corn = experiment: Test B pre/postemergence corn; type: in vivo, Zea mays
How it was run: as §1

crabgrass = experiment: Test B pre/postemergence crabgrass; type: in vivo, Digitaria sanguinalis
How it was run: as §1

giant foxtail = experiment: Test B pre/postemergence giant foxtail; type: in vivo, Setaria faberii
How it was run: as §1

morningglory = experiment: Test B pre/postemergence morningglory; type: in vivo, Ipomoea hederacea
How it was run: as §1

pigweed = experiment: Test B pre/postemergence pigweed; type: in vivo, Amaranthus retroflexus
How it was run: as §1

soybean = experiment: Test B pre/postemergence soybean; type: in vivo, Glycine max
How it was run: as §1

velvetleaf = experiment: Test B pre/postemergence velvetleaf; type: in vivo, Abutilon theophrasti
How it was run: as §1

wheat = experiment: Test B pre/postemergence wheat; type: in vivo, Triticum aestivum
How it was run: as §1

wild oat = experiment: Test B pre/postemergence wild oat; type: in vivo, Avena fatua
How it was run: as §1

rice = experiment: Test B flood test rice; type: in vivo, Oryza sativa
How it was run: (§2)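 Each value is a visual injury score relative to controls, with 10 meaning complete control and 0 no effect. Evaluation took place twelve to sixteen days after the 2-leaf-stage plants were treated and kept in the greenhouse.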

smallflower flatsedge = experiment: Test B flood test smallflower flatsedge; type: in vivo, Cyperus difformis
How it was run: as §2

bamyardgrass = experiment: Test B flood test barnyardgrass; type: in vivo, Echinochloa crus-galli
How it was run: as §2

[1] = Postemergence, Rate 125 g/ha, scale of 0 to 10 where 0 is no effect and 10 is complete control
[2] = Preemergence, Rate 125 g/ha, 0 is no effect, 10 is complete control
[3] = Preemergence, Rate 250 g/ha, scale 0 to 10, 0 is no effect, 10 is complete control
[4] = Preemergence, Rate 500 g/ha, scale 0 to 10 (0 no effect, 10 complete control)
[5] = Rate 62 g/ha, Postemergence, scale of 0 to 10 where 0 is no effect and 10 is complete control
[6] = Rate 250 g/ha, Postemergence, scale 0 to 10, 0 is no effect, 10 is complete control
[7] = Preemergence, Rate 62 g/ha, scale 0 to 10 (0 no effect, 10 complete control)
[8] = Rate 500 g/ha, Postemergence, scale 0 to 10
[9] = Postemergence (flood test species), Rate 125 g/ha, scale of 0 to 10 where 0 is no effect and 10 is complete control
[10] = Rate 62 g/ha, Postemergence section, flood test species, scale of 0 to 10 where 0 is no effect and 10 is complete control
[11] = Rate 250 g/ha, Postemergence (flood test), scale 0 to 10, 0 is no effect, 10 is complete control
[12] = Rate 500 g/ha, listed under Postemergence (flood test species), scale 0 to 10

CC(C)c1noc(C(C)C)c1-n1c(=O)on(C(=O)N(c2ccc(F)cc2)C(C)C)c1=O [Compound 135]
Bedstraw plant response rating (bedstraw; [1]): 0 | Bedstraw plant response rating (0 to 10 scale) (bedstraw; [2]): 0 | Bedstraw plant response rating (bedstraw; [3]): 0 | Bedstraw plant response rating (bedstraw; [4]): 4 | Bedstraw plant response rating (bedstraw; [5]): 0 | Plant response rating, Bedstraw (bedstraw; [6]): 2 | Blackgrass plant response rating (blackgrass; [1]): 0 | Blackgrass plant response rating (blackgrass; [7]): 0 | Blackgrass plant response rating (0 to 10 scale) (blackgrass; [2]): 0 | Blackgrass plant response rating (blackgrass; [3]): 0 | Blackgrass plant response rating (blackgrass; [4]): 4 | Blackgrass plant response rating (blackgrass; [5]): 0 | Plant response rating, Blackgrass (blackgrass; [6]): 0 | Blackgrass plant response rating (blackgrass; [8]): 0 | B. signalgrass plant response rating (surinam grass; [1]): 0 | B. signalgrass plant response rating (surinam grass; [7]): 0 | B. signalgrass plant response rating (0 to 10 scale) (surinam grass; [2]): 0 | B. signalgrass plant response rating (surinam grass; [3]): 3 | B. signalgrass plant response rating (surinam grass; [4]): 4 | B. signalgrass plant response rating (surinam grass; [5]): 0 | Plant response rating, B. signalgrass (surinam grass; [6]): 0 | B. signalgrass plant response rating (surinam grass; Rate 500 g/ha, Postemergence, scale of 0 to 10 where 0 is no effect and 10 is complete control): 0 | Cocklebur plant response rating (cocklebur; [1]): 0 | Cocklebur plant response rating (cocklebur; [7]): 0 | Cocklebur plant response rating (0 to 10 scale) (cocklebur; [2]): 0 | Cocklebur plant response rating (cocklebur; [3]): 0 | Cocklebur plant response rating (cocklebur; [4]): 0 | Cocklebur plant response rating (cocklebur; [5]): 0 | Plant response rating, Cocklebur (cocklebur; [6]): 0 | Cocklebur plant response rating (cocklebur; [8]): 0 | Corn plant response rating (corn; [1]): 0 | Corn plant response rating (corn; [7]): 0 | Corn plant response rating (0 to 10 scale) (corn; [2]): 0 | Corn plant response rating (corn; [3]): 0 | Corn plant response rating (corn; [4]): 0 | Corn plant response rating (corn; [5]): 0 | Plant response rating, Corn (corn; [6]): 0 | Corn plant response rating (corn; [8]): 0 | Crabgrass plant response rating (crabgrass; [1]): 0 | Crabgrass plant response rating (crabgrass; [7]): 0 | Crabgrass plant response rating (0 to 10 scale) (crabgrass; [2]): 0 | Crabgrass plant response rating (crabgrass; [3]): 0 | Crabgrass plant response rating (crabgrass; [4]): 4 | Crabgrass plant response rating (crabgrass; [5]): 0 | Plant response rating, Crabgrass (crabgrass; [6]): 0 | Giant foxtail plant response rating (giant foxtail; [1]): 0 | Giant foxtail plant response rating (giant foxtail; [7]): 0 | Giant foxtail plant response rating (0 to 10 scale) (giant foxtail; [2]): 0 | Giant foxtail plant response rating (giant foxtail; [3]): 0 | Giant foxtail plant response rating (giant foxtail; [5]): 0 | Plant response rating, Giant foxtail (giant foxtail; [6]): 0 | Giant foxtail plant response rating (giant foxtail; [8]): 0 | Morningglory plant response rating (morningglory; [1]): 1 | Morningglory plant response rating (morningglory; [7]): 0 | Morningglory plant response rating (0 to 10 scale) (morningglory; [2]): 0 | Morningglory plant response rating (morningglory; [3]): 0 | Morningglory plant response rating (morningglory; [4]): 0 | Morningglory plant response rating (morningglory; [5]): 0 | Plant response rating, Morningglory (morningglory; [6]): 1 | Morningglory plant response rating (morningglory; [8]): 1 | Redroot pigweed plant response rating (pigweed; [1]): 0 | Redroot pigweed plant response rating (0 to 10 scale) (pigweed; [2]): 3 | Redroot pigweed plant response rating (pigweed; [3]): 4 | Redroot pigweed plant response rating (pigweed; [4]): 4 | Redroot pigweed plant response rating (pigweed; [5]): 0 | Plant response rating, Redroot pigweed (pigweed; [6]): 0 | Redroot pigweed plant response rating (pigweed; [8]): 0 | Soybean plant response rating (soybean; [1]): 2 | Soybean plant response rating (soybean; [7]): 0 | Soybean plant response rating (0 to 10 scale) (soybean; [2]): 0 | Soybean plant response rating (soybean; [3]): 0 | Soybean plant response rating (soybean; [4]): 0 | Soybean plant response rating (soybean; [5]): 2 | Plant response rating, Soybean (soybean; [6]): 3 | Soybean plant response rating (soybean; [8]): 3 | Velvetleaf plant response rating (velvetleaf; [1]): 0 | Velvetleaf plant response rating (velvetleaf; [7]): 0 | Velvetleaf plant response rating (0 to 10 scale) (velvetleaf; [2]): 0 | Velvetleaf plant response rating (velvetleaf; [3]): 0 | Velvetleaf plant response rating (velvetleaf; [4]): 0 | Velvetleaf plant response rating (velvetleaf; [5]): 0 | Plant response rating, Velvetleaf (velvetleaf; [6]): 0 | Velvetleaf plant response rating (velvetleaf; [8]): 0 | Wheat plant response rating (wheat; [1]): 0 | Wheat plant response rating (wheat; [7]): 0 | Wheat plant response rating (0 to 10 scale) (wheat; [2]): 0 | Wheat plant response rating (wheat; [3]): 0 | Wheat plant response rating (wheat; [4]): 0 | Wheat plant response rating (wheat; [5]): 0 | Plant response rating, Wheat (wheat; [6]): 0 | Wheat plant response rating (wheat; [8]): 0 | Wild oats plant response rating (wild oat; [1]): 0 | Wild oats plant response rating (wild oat; [7]): 0 | Wild oats plant response rating (0 to 10 scale) (wild oat; [2]): 0 | Wild oats plant response rating (wild oat; [3]): 0 | Wild oats plant response rating (wild oat; [4]): 0 | Wild oats plant response rating (wild oat; [5]): 0 | Plant response rating, Wild oats (wild oat; [6]): 0 | Wild oats plant response rating (wild oat; [8]): 0 | Rice plant response rating (rice; [9]): 0 | Rice plant response rating (rice; [10]): 0 | Plant response rating, Rice (rice; [11]): 0 | Rice plant response rating (rice; [12]): 0 | S. Flatsedge plant response rating (smallflower flatsedge; [9]): 0 | S. Flatsedge plant response rating (smallflower flatsedge; [10]): 0 | Plant response rating, S. Flatsedge (smallflower flatsedge; [11]): 0 | S. Flatsedge plant response rating (smallflower flatsedge; [12]): 0 | Barnyardgrass plant response rating (bamyardgrass; [9]): 0 | Barnyardgrass plant response rating (bamyardgrass; [10]): 0 | Plant response rating, Barnyardgrass (bamyardgrass; [11]): 0 | Barnyardgrass plant response rating (bamyardgrass; Rate 500 g/ha, listed under Postemergence (flood test species), scale 0 to 10, 0 no effect, 10 complete control): 0
